Patent US4020111A, “Propynyloxy alkyl arene insecticides” (priority 1975, dated 1977)

Columns and labels:
[1] = system: polyvalent resistant (CH strain) houseflies; experiment: whole plant or invertebrate; type: in vivo, housefly (CH strain); settings: Musca domestica, topical, 24 h, read-out: mortality, insecticide used without synergist
Experimental: The effect of O-(2-propynyl) oximes with Dimetilan and with GS 13798 was obtained from tests on polyvalent resistant (CH strain) houseflies that had been chilled and to the dorsal region of which was applied an acetone solution of synergist and insecticide at a ratio of two to one. Duplicate tests were performed using 10 four to five-day old female houseflies per test. After dosage, the flies were put in a plastic petri dish with cotton soaked in a sugar-water solution. These doses of insecticide used without synergist caused 10-40% mortality.
(§1) In Table IX, and in the tables following it, the doses of topically applied insecticides and of synergists unless otherwise noted are expressed as micrograms per fly (μg/fly).
The effect of compounds II-C, II-D and II-E with Dimetilan and GS 13798 was determined, following the procedure of Example 5, from tests on polyvalent resistant (CH strain) houseflies. These doses of insecticide used without synergist caused 10-40% mortality.
(§2) The synergistic effect with GS 13005 of compounds I-A, I-B, I-D, I-E, I-F, I-G and I-I was determined from topical application tests to IN/WHO strain, Rutgers A strain and polyvalent CH strain houseflies using the procedures of Example 5. The percent kills of the IN/WHO strain flies after 24 hours are shown in Table XXVIII; of the Rutgers A strain, in Table XXIX; and of the polyvalent CH strain, in Table XXX. The doses of insecticide alone to the CH strain files caused 10-40% mortality.
(§3) The synergistic effect with Diazinon and GS 13005 of various of the benzyl 2-propynyl ethers identified in Tables II and IIa was determined by topical application tests on IN/WHO strain, and Rutgers A strain and polyvalent, resistant, CH strain houseflies using the procedures of Example 5. The percent kills after 24 hours of IN/WHO strain flies are shown in Table XXXI; of Rutgers A strain flies, in Table XXXII; and of CH strain flies, in Table XXXIII. The doses of insecticide alone to the CH strain flies caused 10-40% mortality.
The synergistic effect with pyrethrum of various synergist compounds was determined by topical application tests on polyvalent, resistant CH strain houseflies following the procedure of Example 5. Application of the insecticide alone caused 10-40% mortality.

[2] = system: IN/WHO strain house flies; experiment: topical application test, percent kill after 24 hours, IN/WHO strain; type: in vivo, house fly (susceptible IN/WHO strain)
Experimental: as §1
The synergistic effect of O-(2-propynyl) oximes with mobam was determined from topical application tests on susceptible, female, IN/WHO strain house flies and from tests on resistant, female, Rutgers A strain house flies. The synergist and insecticide were dissolved in ACS Grade acetone in such quantities that a 1.0μ liter volume applied to the thorax of 3-to-5 day old CO2 -anesthetized female adult house flies contained the desired dosage. After being treated, the flies were confined, 10 to a plaster petri dish, with 3-5 dishes/treatment, and held for 24-hr. observation of mortality. Reconstituted skim milk on cotton dental wicks was provided during the holding period. The percent kills after 24 hours are shown in Table X for the IN/WHO strain and Table XI for the Rutgers A strain.
The synergistic effect of benzyl 2-propynyl ethers with mobam was determined from topical application tests on IN/WHO and Rutgers A strain houseflies, following the procedure of Example 5. The percent kills after 24 hours are shown in Table XIV for the IN/WHO strain and in Table XV for the Rutgers A strain.
The effects of varying the insecticide dose and the synergist-insecticide ratio are further illustrated, with synergist compounds II-D, II-E, II-F and Mobam insecticide, in Tables XVI, XVII and XVIII.
The synergistic effect on IN/WHO flies of synergist compound II-K with Dimetilan, pyrolan, Baygon and HRS 1422 is illustrated by the 24 hour percent mortality data in Tables XIX, XX and XXI.
The effect on IN/WHO flies of synergist compound IV-C, identified in Table IV, with mobam was determined by the topical application procedure of Example 5.
The synergistic effect with Diazinon of compounds I-B, I-D, I-F, I-G, I-H and I-I, identified in Tables I and Ia, was determined from topical application tests on IN/WHO strain houseflies and on Rutgers A strain houseflies by the procedure of Example 5. The percent kills after 24 hours are shown in Table XXV for the IN/WHO strain and Table XXVI for the Rutgers A strain.
as §2, §3
The synergist effect on IN/WHO flies of synergist compound II-K with Gardona and Bidrin is illustrated by the 24 hour percent mortality data in Tables XXXIV and XXXV.
The synergistic effect on IN/WHO strain flies and Rutgers A strain flies of compound IV-C with GS 13005 and with Diazinon was determined by the topical application procedure of Example 5. The percent kills of IN/WHO strain flies after 24 hours are shown in Tables XXXVI and XXXVII; the percent kills of Rutgers A strain flies are shown in Tables XXXVIII and XXXIX.

mice [3] = experiment: acute toxicity of Dimetilan alone and of synergist alone (intraperitoneal); type: in vivo, Swiss albino white male mice; settings: for Lethality (number of mice dead): 48 hours, of eight mice
Experimental: To determine the acute toxicity of dimetilan alone, eight dosage levels of Dimetilan, ranging from 4 to 32 mg per kg wer applied to eight, Swiss, albino, white, male mice per dosage level. The mice weighed approximately 23 to 27 grams and were five to size weeks old. The Dimetilan was administered intraperitoneally in 0.1 ml of corn oil one hour after the administration of the same dose of corn oil alone.
To determine the acute toxicity of the synergist alone, various synergists were administered intraperitoneally at a dose of 1000 mg/kg to each of a group of eight mice. The number of animals dead at the end of 72 hours is reported in the left hand column of Table XXXXVI.

mice [4] = experiment: synergism of acute toxicity of Dimetilan, GS 13005, Secobarbital and Methadone (intraperitoneal); type: in vivo, Swiss albino white male mice; settings: 48 hours
Experimental: The synergism of the acute toxicity of Dimetilan by various synergists was determined by tests on Swiss albino, white male mice aged 5 to 6 weeks and weighing 23 to 27 grams. The synergists and insecticides were dissolved in corn oil and the drugs were dissolved in distilled water. All compounds were administered intraperitoneally by injection in the lower quadrent of the abdomen. The synergist was administered in 0.1 ml of corn oil 1 hour prior to administration of the insecticide. Eight mice were treated, per dosage, with each synergist. The mice were watched for a minimum of 6 hours while held in a glass jar with bedding individually after intraperitoneal injection of the test solutions. Lethality was noted, the animals were weighed and transferred in cages, and food and water were supplied. Control mice were given 0.1 ml of corn oil at the time of administration of the synergist to the test mice and 0.1 ml corn oil plus Dimetilan at the time of administration of the insecticide to the test mice.
By the same procedure, the synergism of acute toxicity of GS 13005, Secobarbital and 6-dimethylamino-4,4-diphenyl-3-heptanone [Methadone] was determined.

[5] = system: Wilson strain house flies; type: in vivo, house fly (susceptible Wilson strain)
Experimental: The required solutions of the insecticide and of the synergist compound were prepared in acetone at a concentration of one milligram per milliliter. One-pint wide mouth glass jars were coated wiith the appropriate insecticide-synergist combination by rolling the jars containing aliquots of the appropriate solutions diluted to three milliliters with acetone to deposit, by evaporation, a film of the test materials. The flies were transferred under carbon dioxide anesthesia and held in the jar at room temperature. Perforated aluminum foil was used to cover the jars and to hold cotton saturated with 10% sugar solution. Counts were made at intervals, but the recorded mortality was based on 24-hour kill, rather than knockdown. All prostrate nonmoving flies were considered dead. A determination was then made of the contact synergistic ratio [SR], which is the ratio of the LC50 of insecticide alone to the LC50 of the insecticide when applied together with the synergist. The LC50 of the insecticide was estimated from a log-probit plot of percent kill versus dosage. […] The LC50 of the combination of insecticide and synergist was determined at a synergist to insecticide parts by weight ratio of five to one.

[6] = system: German male cockroaches (Blatella Germanicus); experiment: topical application to thorax, 24 hour mortality of German male cockroaches; type: in vivo, German cockroach (Blatella Germanicus)
Experimental: The synergistic effect with mobam of synergist compounds I-B, II-H, II-K and IV-C is further illustrated by the 24 hour mortality data of German male cockroaches (Blatella Germanicus) shown in Table XXXX. The synergists and insecticide were diluted in acetone and applied in small droplets to the thorax of the insect. These doses of synergist alone gave zero percent insect mortality.
The synergistic effect with GS 13005 of compounds I-B, II-H, II-K, II-P, II-Q, II-R and IV-C is illustrated by the 24 hour mortality of German male cockroaches shown in Table XXXXI. These doses of synergist alone caused zero percent insect mortality.

mice [7] = experiment: extension of Secobarbital sleeping time by synergists; type: in vivo, Swiss albino white male mice; settings: Secobarbital 37 mg/K; for Relative Sleeping Time: treated/control
Experimental: (§4) The selectivity of the synergist compounds of this invention is illustrated by the results of sleeping-time extension tests and of acute toxicity tests on Swiss albino white male mice.
(§5) The effect of various synergist compounds on sleeping time of sodium secobarbital [Secobarbital] and of 3,3-diethyl-5-methyl-2,4-dioxypiperidine [Noludar] was determined by administering the drug, with and without synergist, to approximately 38-day old male mice weighing from 25 to 30 grams. Synergists were administered in each of two doses, 74.0 mg/kg (dilution being 2.0 mg/0.1 ml corn oil), and 110.0 mg/kg (dilution 3.0 mg/0.1 ml oil). Secobarbital was administered at a dose of 37.0 mg/kg (dilution 1.0 mg/0.1 ml water). Noludar was administered at a dose of 110.0 mg/kg (dilution 3.0 mg/0.1 ml water). The synergist was administered one hour prior to administration of the Secobarbital or Noludar. Secobarbital and Noludar sleeping times were obtained for both the control (drug only) and the treated (synergist plus drug) mice by noting the time lapse between the administration of the drug and the recovery of the righting reflex, i.e. when the animal regains conciousness and can walk up an inclined wooden tray with coordination. The relative sleeping time (R.S.) was noted. The R.S. is the extended sleeping time in the treated mice (synergist plus drug) divided by the sleeping time in the control mice (drug only). The mean sleeping time for the treated mice and the R.S. are shown on Table XXXXIV for various synergist compounds.

mice [8] = experiment: extension of Noludar sleeping time by synergists; type: in vivo, Swiss albino white male mice; settings: Noludar 110 mg/K, synergist 110 mg/K; for Relative Sleeping Time: treated/control
Experimental: as §4, §5

[9] = synergist alone at doses of Table XXXX
[10] = synergist alone at doses of Table XXXXI
[11] = Dimetilan 8 mg/kg + synergist 80 mg/kg ip, of eight mice
[12] = Dimetilan 8 mg/kg + synergist 240 mg/kg ip, of eight mice

Row | SMILES | insect mortality, synergist alone [6, 9] | insect mortality, synergist alone [6, 10] | Mean Sleeping Time (mice [7]; synergist 74 mg/K) [min] | Relative Sleeping Time (mice [7]; synergist 74 mg/K) | Mean Sleeping Time (mice [7]; synergist 110 mg/K) [min] | Relative Sleeping Time (mice [7]; synergist 110 mg/K) | Mean Sleeping Time (mice [8]) [min] | Relative Sleeping Time (mice [8]) | number of mice dead (mice [4]; [11]) | number of mice dead (mice [4]; [12]) | further results
1 | Cc1cc(OC(=O)N(C)C)nn1C(=O)N(C)C [Dimetilan, 1-(dimethylcarbamoyl)-5-methyl-3-pyrazolyl dimethylcarbamate] |  |  |  |  |  |  |  |  |  |  | mortality at 2 µg/fly [1]: 10 to 40%; 24 hour percent mortality ([2]; Dimetilan alone 0.031 μg/fly): 0%; 24 hour percent mortality ([2]; Dimetilan alone 0.063 μg/fly): 17%; 24 hour percent mortality ([2]; Dimetilan alone 0.13 μg/fly): 43%; 24 hour percent mortality ([2]; Dimetilan alone 0.25 μg/fly): 100%; Lethality (number of mice dead) (mice [3]; Dimetilan alone 4.0 mg/kg ip): 0; Lethality (number of mice dead) (mice [3]; Dimetilan alone 8.0 mg/kg ip): 0; Lethality (number of mice dead) (mice [3]; Dimetilan alone 12.0 mg/kg ip): 1; Lethality (number of mice dead) (mice [3]; Dimetilan alone 16.0 mg/kg ip): 3; Lethality (number of mice dead) (mice [3]; Dimetilan alone 20.0 mg/kg ip): 4; Lethality (number of mice dead) (mice [3]; Dimetilan alone 24.0 mg/kg ip): 7; Lethality (number of mice dead) (mice [3]; Dimetilan alone 28.0 mg/kg ip): 8; Lethality (number of mice dead) (mice [3]; Dimetilan alone 32.0 mg/kg ip): 8; dose level just below that at which Dimetilan alone showed lethality (mice [3]; mice, ip): 8 mg/kg; number of mice dead (mice [4]; control: Dimetilan 8 mg/kg with 0.1 ml oil, 80 mg/kg): 0; number of mice dead (mice [4]; control: Dimetilan 8 mg/kg with 0.1 ml oil, 240 mg/kg): 0
2 | C#CCON=Cc1cccc([N+](=O)[O-])c1 [I-B] | zero | zero | 54 | 1.5 | 106 | 1.7 | 70 | 2.4 | 1 | 6 | Contact Synergistic Ratio, Carbaryl (LC50 insecticide alone / LC50 with synergist) ([5]; in vivo): 270; Contact Synergistic Ratio, Pyrolan (LC50 insecticide alone / LC50 with synergist) ([5]; pyrolan, synergist to insecticide 5:1 by weight, 24 h): 35
3 | C#CCOCc1cccc2ccccc12 [II-R, α-naphthylmethyl 2-propynyl ether] |  | zero | 35 | 1.2 | 96 | 1.6 | 49 | 1.7 | 0 | 2 | 
4 | C#CCOC(c1ccc(Cl)cc1)C(C)[N+](=O)[O-] (stereo not drawn) [IV-C] | zero | zero | 112 | 4.7 |  |  | 74 | 2.5 | 5 | 7 | 
